Laboratory results as given in ChEMBL document CHEMBL1131541, “New synthetic inhibitors of microtubule depolymerization” (1998).

Columns and labels:
A498 = test: Compound was tested for growth inhibitory activity against A498 cell line; format: functional; conditions: Homo sapiens
BT-549 = test: Compound was tested for growth inhibitory activity against BT-549 cell line; format: functional; conditions: Homo sapiens
COLO 205 = test: Compound was tested for growth inhibitory activity against COLO 205 cell line; format: functional; conditions: Homo sapiens
HL-60 = test: Compound was tested for growth inhibitory activity against HL-60 cell line; format: functional; conditions: Homo sapiens
HT-29 = test: Compound was tested for growth inhibitory activity against HT-29 cell line; format: functional; conditions: Homo sapiens
HOP-62 = test: Compound was tested for growth inhibitory activity against HOP-62 cell line; format: functional; conditions: Homo sapiens
HCC 2998 = test: Compound was tested for growth inhibitory activity against HCC2998 cell line; format: functional; conditions: Homo sapiens
Hs-578T = test: Compound was tested for growth inhibitory activity against HS 578T cell line; format: functional; conditions: Homo sapiens
NCI/ADR-RES = test: Compound was tested for growth inhibitory activity against MCF-7/ADR cell line; format: functional; conditions: Homo sapiens
MCF7 = test: Compound was tested for growth inhibitory activity against MCF-7 cell line; format: functional; conditions: Homo sapiens
MDA-MB-435 = test: Compound was tested for growth inhibitory activity against MDA-MB-435 cell line; format: functional; conditions: Homo sapiens
NCI-H522 = test: Compound was tested for growth inhibitory activity against NCI-H522 cell line; format: functional; conditions: Homo sapiens
OVCAR-3 = test: Compound was tested for growth inhibitory activity against OVCAR-3 cell line; format: functional; conditions: Homo sapiens
OVCAR-8 = test: Compound was tested for growth inhibitory activity against OVCAR-8 cell line; format: functional; conditions: Homo sapiens
PC-3 = test: Compound was tested for growth inhibitory activity against PC-3 cell line; format: functional; conditions: Homo sapiens
RXF 393 = test: Compound was tested for growth inhibitory activity against RXF 393 cell line; format: functional; conditions: Homo sapiens
SF-268 = test: Compound was tested for growth inhibitory activity against SF-268 cell line; format: functional; conditions: Homo sapiens
SK-MEL-2 [1] = test: Compound was tested for growth inhibitory activity against SK-MEL-2 cell line; format: functional; conditions: Homo sapiens
SF-539 = test: Compound was tested for growth inhibitory activity against SF-539 cell line; format: functional; conditions: Homo sapiens
SNB-19 = test: Compound was tested for growth inhibitory activity against SNB-19 cell line; format: functional; conditions: Homo sapiens
SR = test: Compound was tested for growth inhibitory activity against SR cell line; format: functional; conditions: Homo sapiens
SK-MEL-5 = test: Compound was tested for growth inhibitory activity against SK-MEL-5 cell line; format: functional; conditions: Homo sapiens
UO-31 = test: Compound was tested for growth inhibitory activity against UO-31 cell line; format: functional; conditions: Homo sapiens
U-251 = test: Compound was tested for growth inhibitory activity against U251 cell line; format: functional; conditions: Homo sapiens
NCI-H226 = test: Compound was tested for growth inhibitory activity against NCI-H226 cell line; format: functional; conditions: Homo sapiens
786-0 = test: Compound was tested for growth inhibitory activity against 786-0 cell line; format: functional; conditions: Homo sapiens
SF-295 = test: Compound was tested for growth inhibitory activity against SF-295 cell line; format: functional; conditions: Homo sapiens
SK-OV-3 = test: Compound was tested for growth inhibitory activity against SK-OV-3 cell line; format: functional; conditions: Homo sapiens
UACC-62 = test: Compound was tested for growth inhibitory activity against UACC-62 cell line; format: functional; conditions: Homo sapiens
HCT-15 = test: Compound was tested for growth inhibitory activity against HCT-15 cell line; format: functional; conditions: Homo sapiens
KM12 = test: Compound was tested for growth inhibitory activity against KM12 cell line; format: functional; conditions: Homo sapiens
M14 = test: Compound was tested for growth inhibitory activity against M14 cell line; format: functional; conditions: Homo sapiens
MOLT-4 = test: Compound was tested for growth inhibitory activity against MOLT-4 cell line; format: functional; conditions: Homo sapiens
SK-MEL-2 [2] = test: Compound was tested for growth inhibitory activity against SK-MEL-2; format: functional; conditions: Homo sapiens
[3] = biological target: Tubulin beta chain (Bos taurus) (UniProt Q6B856); test: Effect on microtubule stabilization isolated from bovine brain
Chain of Tubulin beta chain (Bos taurus) (Q6B856 whole entry): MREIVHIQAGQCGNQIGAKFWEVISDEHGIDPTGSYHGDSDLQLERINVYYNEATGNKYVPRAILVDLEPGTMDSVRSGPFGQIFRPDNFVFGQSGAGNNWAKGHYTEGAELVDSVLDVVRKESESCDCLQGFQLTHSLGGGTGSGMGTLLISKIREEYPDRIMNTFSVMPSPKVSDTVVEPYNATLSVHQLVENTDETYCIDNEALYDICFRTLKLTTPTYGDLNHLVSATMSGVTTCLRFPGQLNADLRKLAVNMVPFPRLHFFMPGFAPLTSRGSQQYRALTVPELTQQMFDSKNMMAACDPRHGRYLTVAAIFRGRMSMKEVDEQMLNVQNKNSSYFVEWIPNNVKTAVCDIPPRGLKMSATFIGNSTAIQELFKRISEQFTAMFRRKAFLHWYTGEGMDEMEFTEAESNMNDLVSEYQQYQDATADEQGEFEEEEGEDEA

| SMILES | GI50 (A498) [nM] | GI50 (BT-549) [nM] | GI50 (COLO 205) [nM] | GI50 (HL-60) [nM] | GI50 (HT-29) [nM] | GI50 (HOP-62) [nM] | GI50 (HCC 2998) [nM] | GI50 (Hs-578T) [nM] | GI50 (NCI/ADR-RES) [nM] | GI50 (MCF7) [nM] | GI50 (MDA-MB-435) [nM] | GI50 (NCI-H522) [nM] | GI50 (OVCAR-3) [nM] | GI50 (OVCAR-8) [nM] | GI50 (PC-3) [nM] | GI50 (RXF 393) [nM] | GI50 (SF-268) [nM] | GI50 (SF-539) [nM] | GI50 (SNB-19) [nM] | GI50 (SR) [nM] | also measured |
| --- | --- | --- | --- | --- | --- | --- | --- | --- | --- | --- | --- | --- | --- | --- | --- | --- | --- | --- | --- | --- | --- |
| CC(=O)O[C@H]1C(=O)[C@@]2(C)[C@H]([C@H](OC(=O)c3ccccc3)[C@]3(O)C[C@H](OC(=O)[C@H](O)[C@@H](NC(=O)c4ccccc4)c4ccccc4)C(C)=C1C3(C)C)[C@]1(OC(C)=O)CO[C@@H]1C[C@@H]2O [PACLITAXEL] | 79.4 | 6.31 | 3.16 | 5.01 | 2.51 | 15.8 | 3.98 | 3.16 | 3160 | 3.16 | 2.51 | 3.16 | 3.16 | 5.01 | 3.98 | 7.94 | 7.94 | 3.16 | 10 | 2.51 | GI50 (SK-MEL-2 [1]): 5.01 nM; GI50 (SK-MEL-5): 3.98 nM; GI50 (UO-31): 1000 nM; GI50 (U-251): 3.98 nM; GI50 (NCI-H226): 31.6 nM; GI50 (786-0): 19.9 nM; GI50 (SF-295): 15.8 nM; GI50 (SK-OV-3): 10 nM; GI50 (UACC-62): 3.98 nM; GI50 (HCT-15): 200 nM; GI50 (KM12): 3.16 nM; GI50 (M14): 10 nM; GI50 (MOLT-4): 3.98 nM |
| COC(=O)N[C@@H](c1ccncc1)[C@@H](O)C(=O)OC1CC2C(C)(C)C1(C)[C@@]13CC(C)c4ccccc4[C@@]21O3 (some centres not stated) | 12300 | 22900 | 1860 | 871 | 447 | 6170 | 525 | 1480 | 1910 | 2820 | 589 | 813 | 1860 | 2450 | 3020 | 4570 | 3800 | 4680 | 2190 | 1450 | GI50 (SK-MEL-2 [2]): 2570 nM; GI50 (SK-MEL-5): 2340 nM; GI50 (UO-31): 562 nM; Relative stability [3]: -5%; GI50 (U-251): 3980 nM; GI50 (NCI-H226): 977 nM; GI50 (786-0): 2750 nM; GI50 (SF-295): 2090 nM; GI50 (SK-OV-3): 1910 nM; GI50 (UACC-62): 2630 nM; GI50 (HCT-15): 977 nM; GI50 (KM12): 933 nM; GI50 (M14): 1740 nM; GI50 (MOLT-4): 4680 nM |
